Source: patent US10912780B2, “Heterocyclic compounds useful as anti-bacterial agents and method for production thereof” (Bugworks Research, Inc., priority 2017, dated 2021)
Values after ≈ are worked out from the molar mass of the structure shown. Values joined by “and” are separate entries in the source; they are usually repeats but may differ in a detail not shown here. Equal values may be shown once.

Columns and labels:
[1] = biological target: T1, human ether a go-go related gene (hERG) K+ channel (Homo sapiens, UniProt Q12809); test: hERG inhibition assay, QPatch HTX automated electrophysiology; assay type: cell-based; settings: CHO cell line stably expressing hERG, whole-cell patch clamp, maximum test concentration 300 μM
T1 construct: Chinese Hamster Ovary cell line stably expressing the full-length hERG potassium channel; expressed in transfected cells
T1 sequence (Q12809 whole entry): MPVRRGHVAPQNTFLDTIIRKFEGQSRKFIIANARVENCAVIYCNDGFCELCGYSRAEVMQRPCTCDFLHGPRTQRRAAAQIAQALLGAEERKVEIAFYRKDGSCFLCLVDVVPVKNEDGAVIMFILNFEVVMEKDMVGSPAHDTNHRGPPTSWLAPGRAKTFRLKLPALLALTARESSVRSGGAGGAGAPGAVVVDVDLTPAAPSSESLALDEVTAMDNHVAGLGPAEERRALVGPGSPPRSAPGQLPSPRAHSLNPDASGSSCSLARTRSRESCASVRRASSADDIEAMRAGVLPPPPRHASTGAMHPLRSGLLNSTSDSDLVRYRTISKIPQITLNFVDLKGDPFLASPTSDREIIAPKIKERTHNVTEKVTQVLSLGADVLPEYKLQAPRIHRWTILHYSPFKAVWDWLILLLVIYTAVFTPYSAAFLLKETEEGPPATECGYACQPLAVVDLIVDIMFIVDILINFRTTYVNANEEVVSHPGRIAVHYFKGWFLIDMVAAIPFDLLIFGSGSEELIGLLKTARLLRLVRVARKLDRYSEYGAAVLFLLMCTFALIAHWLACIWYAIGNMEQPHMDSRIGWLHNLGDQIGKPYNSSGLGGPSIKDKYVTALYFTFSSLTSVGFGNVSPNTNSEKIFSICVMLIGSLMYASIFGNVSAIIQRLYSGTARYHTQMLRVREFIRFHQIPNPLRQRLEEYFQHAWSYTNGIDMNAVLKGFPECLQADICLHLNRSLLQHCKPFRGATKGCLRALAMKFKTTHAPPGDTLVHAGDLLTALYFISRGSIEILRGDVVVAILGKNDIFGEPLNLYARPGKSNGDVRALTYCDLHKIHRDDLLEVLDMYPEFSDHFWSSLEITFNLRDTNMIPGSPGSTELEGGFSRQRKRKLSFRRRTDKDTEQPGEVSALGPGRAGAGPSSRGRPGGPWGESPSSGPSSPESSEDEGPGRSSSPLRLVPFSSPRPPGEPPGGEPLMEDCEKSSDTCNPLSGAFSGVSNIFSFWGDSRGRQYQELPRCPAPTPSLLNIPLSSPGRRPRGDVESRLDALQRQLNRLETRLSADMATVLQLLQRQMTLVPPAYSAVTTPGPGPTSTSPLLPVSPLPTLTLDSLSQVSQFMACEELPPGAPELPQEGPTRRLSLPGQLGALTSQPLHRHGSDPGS
Protocol: The compounds were tested for inhibition of the human ether a go-go related gene (hERG) K+ channel using QPatch HTX automated electrophysiology.
Compounds were solubilised to 100 mM in DMSO before dilution in HBPS to 300 μM.
Electrophysiological recordings were made from a Chinese Hamster Ovary cell line stably expressing the full-length hERG potassium channel. Single cell ionic currents were measured in whole-cell patch clamp configuration at room temperature (21-23° C.) using the QPatch HTX platform (Sophion). Intracellular solution contained (mM): 120 KF, 20 KCl, 10 EGTA, 10 HEPES and was buffered to pH 7.3. […] Cells were clamped at a holding potential of −80 mV. […] This sweep was repeated 10 times at 10 s intervals. hERG currents were measured from the tail step and referenced to the holding current. Compounds were then incubated for 2 minutes prior to a second measurement of ion channel current using an identical pulse train.

[2] = In vivo pharmacokinetic studies in rats, 1 hr intravenous infusion; settings: for AUC(0-t) / AUC(0-inf) / Cmax / Tmax / clearance / half-life / Vd: male, Sprague-Dawley, rat, iv; for Vd: male SD rats, 1 h IV infusion
[3] = tested on: K. pneumoniae [ATCC13883]; test: Neutropenic thigh infection model in rat; assay type: in vivo
[4] = tested on: P. aeruginosa [ATCC27853]; test: Neutropenic lung infection model in rat; assay type: in vivo; settings: for MEAN ± SD (Log 10 CFU/g Lung) / Mean Log 10CFU/g lung reduction (wrt 4 h PI control 5.78 Log10CFU/g lung) / Log 10 CFU/g Lung: neutropenic rat, 24 h post infection; for Log 10 CFU/g Lung: individual animals
Protocol: The purpose of this study was to evaluate the efficacy of example 15 against P. aeruginosa [ATCC27853], following single dose intravenous infusion doses of 10, 30 and 100 mg/kg in a neutropenic lung infection model in rats
Prior to the start of the infection process, all animals were divided into different groups. All grouped cages of animals were carried to a procedure room, close to a biological safety cabinet. All infections were conducted in a biological safety cabinet, with appropriate personnel protection. Animals were placed into an induction chamber and anaesthesia was induced by exposing the animals to 3-5% Isoflurane in an oxygen flow set at approximately (˜) 1 liter per minute (LPM). Once the animals were in a sufficiently deep plane of anaesthesia as monitored by pedal reflex, they were removed and infected (2). […] A gentle mixing of inoculum between two animals was followed for uniform distribution.
The IV formulation vehicle used for example 15 was 10% of L-ascorbic acid in fresh MilliQ water (w/v) with pH adjusted to ˜4.0 with 1N Sodium hydroxide solution (w/v), and the dose volume was 10 mL/kg. Meropenem was formulated in saline. […] The dose levels of the test Example 15 were 10, 30 and 100 mg/kg.
All the animals in groups were sacrificed at 24 h post infection, as specified in experimental design, by an overdose of CO2 in an appropriate exposure chamber. The group 1 animals were sacrificed at 4 hrs post infection. The euthanized animals were dipped into 70% ethanol for surface decontamination. Entire Lung was aseptically isolated, weighed and placed into 1 mL of sterile CSDB broth, and homogenized (Omni Tip (220 V hand held)). Serial ten-fold dilutions of the lungs homogenates were prepared in sterile CSD broth and 0.05 mL of four dilutions for each tissue was plated onto CSDA agar plates. Bacterial colonies were enumerated following overnight incubation at 37° C. Bacterial densities were estimated as Log10 CFU/g lung. The Mean±SD Log10 CFU/g lung was estimated in each group. Significant differences between group means and control were analyzed by one way ANOVA, followed by a Dunnett's multiple comparison test, using Graphpad Prism at 95% confidence levels.

[5] = tested on: Acinetobacter baumannii ATCC 19606; test: Minimum Inhibitory Concentration (MIC) in LB media; assay type: cell-based; settings: Acinetobacter baumannii, ATCC19606;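 further: twofold compound dilutions from DMSO stocks in LB broth microplates, overnight incubation at 37 °C, growth read by absorbance at 600 nm, with DMSO and sterility controls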
Protocol: Bacterial cultures that are stored as glycerol stocks at −80° C. are sub cultured on LB agar plates to obtain isolated colonies. A single colony of each strain is cultured in LB broth. […] Test compounds are dissolved in dimethyl sulfoxide (DMSO) to a stock concentration of 4 mg/ml. A twofold dilution series of this DMSO stock is prepared in a 96 well V bottom microtitre plate from rows A to H. A 3 μL volume of these dilutions are transferred to a 96-well flat bottom microtitre assay plate. Controls to monitor the effects of DMSO and media sterility are included. Each well is inoculated with 150 μL of the above diluted culture. The plates are incubated at 37° C. overnight in a humidified incubator. The following morning, the plates are read using a Spectrophotometer at 600 nm wavelength.

[6] = tested on: E. cloacae clinical strains; test: Antibacterial susceptibility studies (MIC50 and MIC90) with clinical strains, CLSI guidelines; assay type: cell-based
[7] = 3 mg/kg, i.v., 1 h infusion, neutropenic rat, 10 hr post infection
[8] = Enterobacter cloacae, E. cloacae clinical strains (88 strains)

With `Cn1c(=O)ccc2ccc(F)c(CCNC[C@H]3CN(c4cnc5c(n4)NC(=O)CO5)C(=O)O3)c21` [Example 15, (S)-6-(5-(((2-(7-fluoro-1-methyl-2-oxo-1,2-dihydroquinolin-8-yl)ethyl)amino)methyl)-2-oxooxazolidin-3-yl)-2H-pyrazino[2,3-b][1,4]oxazin-3(4H)-one] the IC50 [1] was 131 µM, the “clearance (in words)” value ([2]; SD rats, 1 hr IV infusion) was “moderate” and the “half life (in words)” value ([2]; SD rats, 1 hr IV infusion) was “short”. The “volume of distribution (in words)” value ([2]; SD rats, 1 hr IV infusion) was “low”, the “AUC and Cmax versus dose (in words)” value ([2]; SD rats, IV infusion at 5, 10, 30 & 100 mg/kg) was “Dose proportional increase” and the AUC(0-t) ([2]; in vivo) was 104000 ± 7300 ng·h/mL. For the same compound, the AUC(0-inf) ([2]; in vivo, 30 mg/kg) was 14700 ± 200 ng·h/mL, the AUC(0-t) ([2]; in vivo, 30 mg/kg) was 14700 ± 200 ng·h/mL and the Cmax ([2]; in vivo, 30 mg/kg) was 15200 ± 2200 ng/mL. It also gave a Tmax ([2]; in vivo, 30 mg/kg) of 1 h, a clearance ([2]; in vivo, 30 mg/kg) of 34 mL/min/kg and a half-life ([2]; in vivo, 30 mg/kg) of 0.96 ± 0.02 h. The Vd ([2]; in vivo, 30 mg/kg, Vd) was 2.83 ± 0.09 L/kg, the Vd ([2]; in vivo, 30 mg/kg, Vss, 30 mg/kg) was 0.84 ± 0.06 L/kg and the AUC(0-inf) ([2]; in vivo, 100 mg/kg) was 73700 ± 15300 ng·h/mL. For the same compound, the AUC(0-t) ([2]; in vivo, 100 mg/kg) was 73700 ± 15300 ng·h/mL, the Cmax ([2]; in vivo, 100 mg/kg) was 62600 ± 6700 ng/mL and the Tmax ([2]; in vivo, 100 mg/kg) was 1 h. For the same compound, the clearance ([2]; in vivo, 100 mg/kg) was 23.3 mL/min/kg, the half-life ([2]; in vivo, 100 mg/kg) was 4.93 ± 0.5 h and the Vd ([2]; in vivo, 100 mg/kg, Vd) was 9.86 ± 1.68 L/kg. The Vd ([2]; in vivo, 100 mg/kg, Vss, 100 mg/kg) was 0.9 ± 0.05 L/kg, the AUC(0-inf) ([2]; in vivo, 150 mg/kg) was 104000 ± 7300 ng·h/mL and the Cmax ([2]; in vivo, 150 mg/kg) was 101000 ± 146000 ng/mL. It also gave a Tmax ([2]; in vivo, 150 mg/kg) of 1 h, a clearance ([2]; in vivo, 150 mg/kg) of 24.2 mL/min/kg and a half-life ([2]; in vivo, 150 mg/kg) of 6.17 ± 0.42 h. For the same compound, the Vd ([2]; in vivo, 150 mg/kg, Vd) was 12.9 ± 1 L/kg, the Vd ([2]; in vivo, 150 mg/kg, Vss, 150 mg/kg) was 0.86 ± 0.04 L/kg and the AUC(0-inf) ([2]; plasma, 5 mg/kg) was 1700 ± 50 ng·h/mL. For the same compound, the AUC(0-t) ([2]; plasma, 5 mg/kg) was 1700 ± 50 ng·h/mL, the Cmax ([2]; plasma, 5 mg/kg) was 2400 ± 60 ng/mL and the Tmax ([2]; plasma, 5 mg/kg) was 0.77 ± 0.01 h. The clearance ([2]; plasma, 5 mg/kg) was 48.7 mL/min/kg, the half-life ([2]; plasma, 5 mg/kg) was 0.53 ± 0.03 h and the Vd ([2]; plasma, 5 mg/kg, Vd) was 2.21 ± 0.012 L/kg. For the same compound, the Vd ([2]; plasma, 5 mg/kg, Vss, 5 mg/kg) was 0.91 ± 0.05 L/kg, the “MEAN ± SD (Log 10 CFU/g thigh)” value [3, 7] was 4.10 ± 0.46 Log 10 CFU/g thigh and the “Mean Log10CFU/g thigh reduction (wrt 2 h PI control: 4.72 Log10CFU/g thigh)” value [3, 7] was 0.62 Log10CFU/g thigh. For the same compound, the “Mean Log10CFU/g thigh reduction (wrt 2 h PI control: 4.72 Log10CFU/g thigh)” value ([3]; 10 mg/kg, i.v., 1 h infusion, neutropenic rat, 10 hr post infection) was 1.81 Log10CFU/g thigh, the “Log 10 CFU/g thigh” value ([3]; individual animals, 3 mg/kg, i.v., 1 h infusion, neutropenic rat, 10 hr post infection) was 4.1 Log 10 CFU/g thigh and 4.56 Log 10 CFU/g thigh and 3.65 Log 10 CFU/g thigh and the “efficacy compared to the 2 h PI control (in words)” value ([3]; rat thigh model, 3 mg/kg) was “bacteriostatic”. The “MEAN ± SD (Log 10 CFU/g Lung)” value ([4]; 10 mg/kg, i.v. 1 h infusion) was 6.63 ± 0.15 Log 10 CFU/g Lung, the “Mean Log 10CFU/g lung reduction (wrt 4 h PI control 5.78 Log10CFU/g lung)” value (from here on “Mean Log 10CFU/g lung reduction”) ([4]; 10 mg/kg, i.v. 1 h infusion) was −0.85 Log10CFU/g lung and the “MEAN ± SD (Log 10 CFU/g Lung)” value ([4]; 30 mg/kg, i.v., 1 h infusion) was 4.74 ± 0.08 Log 10 CFU/g Lung. The “Mean Log 10CFU/g lung reduction” value ([4]; 30 mg/kg, i.v., 1 h infusion) was 1.04 Log10CFU/g lung, the “MEAN ± SD (Log 10 CFU/g Lung)” value ([4]; 100 mg/kg, i.v., 1 h infusion) was 4.76 ± 0.2 Log 10 CFU/g Lung and the “Mean Log 10CFU/g lung reduction” value ([4]; 100 mg/kg, i.v., 1 h infusion) was 1.02 Log10CFU/g lung. For the same compound, the “Log 10 CFU/g Lung” value ([4]; 10 mg/g, i.v. 1 h infusion) was 6.68 Log 10 CFU/g Lung and 6.75 Log 10 CFU/g Lung and 6.47 Log 10 CFU/g Lung, the “Log 10 CFU/g Lung” value ([4]; 30 mg/kg, i.v., 1 h infusion) was 4.79 Log 10 CFU/g Lung and 4.65 Log 10 CFU/g Lung and 4.78 Log 10 CFU/g Lung and the “Log 10 CFU/g Lung” value ([4]; 100 mg/kg, i.v., 1 h infusion) was 4.84 Log 10 CFU/g Lung and 4.53 Log 10 CFU/g Lung and 4.90 Log 10 CFU/g Lung. The “efficacy compared to the early infection control (in words)” value ([4]; rat lung model, 10 mg/kg) was “bacteriostatic”, the “efficacy with respect to early infection control (in words)” value ([4]; rat lung model, 30 mg/kg and 100 mg/kg) was “significant efficacy” and the “efficacy versus standard drug (in words)” value ([4]; rat lung model, similar dose (30 mg/kg)) was “comparable to standard drug meropenem”. For the same compound, the MIC [5] was 0.06 µg/mL (≈ 0.128 µM), the MIC50 [6, 8] was 0.25 µg/mL (≈ 0.534 µM) and the MIC90 [6, 8] was 1 µg/mL (≈ 2.13 µM). It also gave a Minimum ([6]; lowest MIC among E. cloacae clinical strains (88 strains), no unit in this line) of 0.03.
